# Reference: patent US8932597B2 (priority 2008, dated 2015)
# Test system: anti-M2 human monoclonal antibody Z3G1
# Format: binding
row,Substance,Signal (peptides that bind to Z3G1)
1,1334 (MSLLCEVGMCLLTEV; epitope peptide) [compound 1334],2676
2,1335 (MCLLTEVGMSCLTEV; epitope peptide) [compound 1335],1869
3,1336 (MSLLCEVGMSCLTEV; epitope peptide) [compound 1336],2846
4,1337 (MCLLTEVGMSLCTEV; epitope peptide) [compound 1337],2513
5,1338 (MSLLCEVGMSLCTEV; epitope peptide) [compound 1338],2595
6,1339 (MCLLTEVGMSLLCEV; epitope peptide) [compound 1339],2234
7,1340 (MSCLTEVGMSLLCEV; epitope peptide) [compound 1340],2341
8,1341 (MSLLCEVGMSLLCEV; epitope peptide) [compound 1341],2851
9,1342 (MSLLTCVGMSLLCEV; epitope peptide) [compound 1342],2712
10,1343 (CSCLCEVGMSLLCEV; epitope peptide) [compound 1343],1945
11,1344 (MCLCTCVGMSLLCEV; epitope peptide) [compound 1344],2431
12,1345 (MSCLCECGMSLLCEV; epitope peptide) [compound 1345],1307
13,1346 (MCLLTEVGMSLLTCV; epitope peptide) [compound 1346],1098
14,1347 (MSLLCEVGMSLLTCV; epitope peptide) [compound 1347],2784
15,1348 (MSLCTEVGCSCLCEV; epitope peptide) [compound 1348],2001
16,1349 (MSLLCEVGCSCLCEV; epitope peptide) [compound 1349],2586
17,1350 (MSLLCEVGMCLCTCV; epitope peptide) [compound 1350],2664
18,1351 (MSLLCEVGMSCLCEC; epitope peptide) [compound 1351],2492
19,1356 (CLLTEVETPCRNE; epitope peptide) [compound 1356],1991
20,1357 (CLLTEVETCIRNE; epitope peptide) [compound 1357],1661
21,1358 (CLLTEVECPIRNE; epitope peptide) [compound 1358],2326
22,1359 (CLLTEVCTPIRNE; epitope peptide) [compound 1359],1585
23,1360 (CLLCEVETPIRNE; epitope peptide) [compound 1360],2314
24,1361 (SLLCEVETPIRNC; epitope peptide) [compound 1361],2460
25,1362 (SLLCEVETPIRCE; epitope peptide) [compound 1362],2307
26,1363 (SLLCEVETPICNE; epitope peptide) [compound 1363],1921
27,1364 (SLLCEVETPCRNE; epitope peptide) [compound 1364],2035
28,1365 (SLLCEVETCIRNE; epitope peptide) [compound 1365],2305

row,Substance,Signal (peptides that bind to Z3G1)
1,1366 (SLLCEVECPIRNE; epitope peptide) [compound 1366],2377
2,1367 (SLLCEVCTPIRNE; epitope peptide) [compound 1367],2283
3,1368 (SLLTEVETPCRNE; epitope peptide) [compound 1368],1665
4,1369 (SLLTEVETPCRCE; epitope peptide) [compound 1369],1546
5,1371 (SLLCEVETPIRNE; epitope peptide) [compound 1371],2511
6,1373 (SLLCEVETPIRNEWGC; epitope peptide) [compound 1373],2281
7,1374 (SLLTEVETPIRNECGC; epitope peptide) [compound 1374],1660
8,1375 (SLLTEVETPIRNEWCC; epitope peptide) [compound 1375],1813
9,1381 (CLLTEVETPCRNEWG; epitope peptide) [compound 1381],2074
10,1382 (CLLTEVETCIRNEWG; epitope peptide) [compound 1382],2296
11,1383 (CLLTEVECPIRNEWG; epitope peptide) [compound 1383],2157
12,1384 (CLLCEVETPIRNEWG; epitope peptide) [compound 1384],2388
13,1386 (SLCCEVETPIRNEWG; epitope peptide) [compound 1386],1603
14,1387 (SLLCEVETPIRNEWC; epitope peptide) [compound 1387],2406
15,1388 (SLLCEVETPIRNECG; epitope peptide) [compound 1388],2107
16,1389 (SLLCEVETPIRNCWG; epitope peptide) [compound 1389],2789
17,1390 (SLLCEVETPIRCEWG; epitope peptide) [compound 1390],2601
18,1391 (SLLCEVETPICNEWG; epitope peptide) [compound 1391],2536
19,1392 (SLLCEVETPCRNEWG; epitope peptide) [compound 1392],2465
20,1393 (SLLCEVETCIRNEWG; epitope peptide) [compound 1393],2531
21,1394 (SLLCEVECPIRNEWG; epitope peptide) [compound 1394],2529
22,1395 (SLLCEVCTPIRNEWG; epitope peptide) [compound 1395],2384
23,1396 (SLLCEVETPIRNEWG; epitope peptide) [compound 1396],2384
24,1397 (CLLTEVCTPIRNEWG; epitope peptide) [compound 1397],1634
25,1398 (SLLTEVETPIRNECC; epitope peptide) [compound 1398],1493
26,1399 (SLLTEVETPIRNECG; epitope peptide) [compound 1399],1545
27,1440 (CTEVETPIRNSLLTEVETPCLTEVETPIR; epitope peptide; MISC_FEATURE (1)..(1): C is an attachment site for a CLIP; MISC_FEATURE (10)..(10): N is an attachment site for a CLIP; MISC_FEATURE (11)..(11): S is an attachment site for a CLIP; MISC_FEATURE (29)..(29): R is an attachment site for a CLIP) [compound 1440],2705
